According to the NIST ThermoML archive (doi:10.1016/j.jct.2009.11.011):

Assays:
[1] = molar heat capacity at saturation pressure; details: Liquid
[2] = Liquid; for mass density: Vibrating tube method; for vapor or sublimation pressure: Ebulliometric method (Recirculating still)

c1ccc2c(c1)ccc1cccnc12 [benzo[h]quinoline]
Details	mass density [kg/m3]	molar heat capacity [J/K/mol]
[1], 400 K	–	307.8
[1], 410 K	–	312.9
[1], 420 K	–	317.9
[1], 430 K	–	323.1
[1], 440 K	–	328.2
[1], 450 K	–	333.3
[1], 460 K	–	338.4
[1], 470 K	–	343.5
[1], 480 K	–	348.5
[1], 490 K	–	353.5
[1], 500 K	–	358.4
[1], 510 K	–	363.3
[1], 520 K	–	368.1
[1], 530 K	–	372.7
[1], 540 K	–	377.2
[1], 550 K	–	381.6
[1], 560 K	–	385.8
[1], 570 K	–	389.7
[1], 580 K	–	393.4
[1], 590 K	–	396.9
[1], 600 K	–	400
[2], 348.13 K	1121.1	–
[2], 373.12 K	1104.9	–
[2], 398.12 K	1087.2	–
[2], 423.11 K	1068.1	–
[2], 448.11 K	1051.1	–
[2], 473.11 K	1030.8	–
[2], 498.11 K	1011.6	–
[2], 523.11 K	992.8	–

c1ccc2c(c1)cnc1ccccc12 [phenanthridine]
Details	mass density [kg/m3]	molar heat capacity [J/K/mol]	vapor or sublimation pressure [kPa]
[1], 400 K	–	314.5	–
[1], 410 K	–	319.1	–
[1], 420 K	–	323.8	–
[1], 430 K	–	328.3	–
[1], 440 K	–	332.9	–
[1], 450 K	–	337.4	–
[1], 460 K	–	341.8	–
[1], 470 K	–	346.2	–
[1], 480 K	–	350.6	–
[1], 490 K	–	354.9	–
[1], 500 K	–	359.2	–
[1], 510 K	–	363.4	–
[1], 520 K	–	367.6	–
[1], 530 K	–	371.7	–
[1], 540 K	–	375.7	–
[1], 550 K	–	379.7	–
[1], 560 K	–	383.7	–
[1], 570 K	–	387.6	–
[1], 580 K	–	391.4	–
[1], 590 K	–	395.2	–
[1], 600 K	–	398.8	–
[2], 423.11 K	1081.8	–	–
[2], 448.11 K	1062.7	–	–
[2], 473.11 K	1043.7	–	–
[2], 473.89 K	–	–	2
[2], 481.92 K	–	–	2.666
[2], 493.84 K	–	–	4
[2], 498.11 K	1023.7	–	–
[2], 502.72 K	–	–	5.333
[2], 515.93 K	–	–	7.999
[2], 523.11 K	1003.9	–	–
[2], 525.85 K	–	–	10.67
[2], 533.86 K	–	–	13.33
[2], 542.18 K	–	–	16.66
[2], 548.11 K	983.7	–	–
[2], 549.09 K	–	–	19.93
[2], 558.18 K	–	–	25.02
[2], 567.34 K	–	–	31.18
[2], 576.54 K	–	–	38.56
[2], 585.79 K	–	–	47.38
[2], 595.1 K	–	–	57.82
[2], 604.47 K	–	–	70.12
[2], 613.89 K	–	–	84.53
[2], 623.35 K	–	–	101.33
